The test system of one data set is c-fos mRNA. Briefly: c-fos mRNA expression in TPA-induced A549 cells, Northern blotting. The note with it: for c-fos mRNA % CONTROL: 400 nM oligonucleotide with LIPOFECTIN, control is TPA induction, at 1 hour, in A549 cells; for inhibition of c-fos mRNA expression: 400 nM oligonucleotide, TPA-induced A549 cells; for c-fos (expression, modified oligonucleotides): Table 10, TPA - no oligo = 100, basal = 3. It is filed as cell-based, human. As for the experimental part: (§1) In order to evaluate the activity of potential c-fos and c-jun modulating oligonucleotides, A549 cells were grown in T-75 flasks until 80-90% confluent. (Cell line A549 is available from, inter alia, the American Type Culture Collection, Rockville, Md., as ATCC No. CCL-185.) At this time, the cells were washed twice with 10 mL of media (DMEM), followed by the addition of 5 mL of DMEM containing 20 μg/mL of LIPOFECTIN™ (i.e., DOTMA/DOPE (N-[1-(2,3-dioleyloxy)propyl]-N,N,N-[…] chloride/dioleoylphosphatidyl ethanolamine)). The oligonucleotides were added from a 10 μM stock solution to a final concentration of 400 nM, and the two solutions were mixed by swirling the flasks. After 4 hours at 37° C., the medium was replaced with DMEM containing 10% serum. At this point, 1 μM 12-O-tetradecanoylphorbol 13-acetate (TPA) was added to induce expression of c-fos and c-jun. Cells were extracted in guanidinium one hour later, and the c-fos and c-jun mRNA expression was determined by Northern blotting. Probes for human c-jun and c-fos were PCR products prepared using primers based on the published sequences thereof (respectively, Hattori et al., Proc. Natl. Acad. Sci. U.S.A., 1988, 85:9148, and Van Straaten et al., Proc. Natl. Acad. Sci. U.S.A., 1983, 80:3183).
Finally, it can also be seen from Table 5 that neither active oligonucleotide has any detectable effect on mRNA levels of the other active oligonucleotide's target.
Once oligonucleotides that modulate c-Fos or c-Jun are identified, derivative or modified oligonucleotides having the same sequence thereas are prepared. In order to evaluate the effect of chemical modifications to oligonucleotides to c-fos and c-jun, the modified oligonucleotides described in Tables 8 and 9 were prepared. The effect of the c-fos-targeted oligonucleotides on c-fos RNA levels were evaluated as described in Examples 2-3. […] Other modified oligonucleotides of the invention are evaluated in like fashion. In order to evaluate the effect of PNA antisense analogs, the PNA analogs of the invention are introduced into appropriate cell lines by microinjection according to the method of Hanvey et al. (Science, 1992, 258:1481). Intracellular delivery of PNA analogs is confirmed by the use of a fluorescently tagged PNA antisense analog conjugate such as, e.g., ISIS 14240.

In a further data set the test system is c-jun mRNA. Briefly: c-jun mRNA expression in TPA-induced A549 cells, Northern blotting. In kind it is cell-based, human. The note with it: for c-jun mRNA % CONTROL: 400 nM oligonucleotide with LIPOFECTIN, control is TPA induction, at 1 hour, in A549 cells; for inhibition of c-jun mRNA expression: 400 nM oligonucleotide, TPA-induced A549 cells. As for the experimental part: as §1, with “The oligonucleotides were added from a 10 μM stock solution to a final concentration of 400 nM, and the two solutions were mixed by swirling the flasks.” left out

This note sets out measurements from US20030194738A1, “Antisense oligonucleotide compositions and methods for the modulation of activating protein 1” (priority 1997, published 2003).

Strand notation (5' to 3'): a small letter for the sugar, then the base; units joined by * are phosphorothioate-linked, units joined directly phosphodiester-linked; [ ] holds rarer units or linkages, { } end groups; capitals alone tell only the bases. d = 2'-deoxy (DNA)

With “CAT-CGT-GGC-GGT-TAG-GCA-AA (CATCGTGGCGGTTAGGCAAA; antisense; all phosphorothioate, sugars by position and methylation of C not given here) [ISIS 10630]”, the “c-fos mRNA % CONTROL” value in the data set on c-fos mRNA amounted to 91 % CONTROL.

As for “TGC-TGC-TGC-CCT-TGC-GGT-GG (TGCTGCTGCCCTTGCGGTGG; antisense; all phosphorothioate, sugars by position and methylation of C not given here) [ISIS 10636]”, the “c-fos mRNA % CONTROL” value with c-fos mRNA was found to be 42 % CONTROL.

In the case of “CCC-CTC-CAG-CAG-CTA-CCC-TT (CCCCTCCAGCAGCTACCCTT; antisense; all phosphorothioate, sugars by position and methylation of C not given here) [ISIS 10640]”, the “c-fos mRNA % CONTROL” value with c-fos mRNA was found to be 87 % CONTROL.

“CCT-GCC-TCG-GCC-TCC-CAA-AG (CCTGCCTCGGCCTCCCAAAG; antisense; DNA, all phosphorothioate, methylation of C not given here) [ISIS 10643]”: the “c-fos mRNA % CONTROL” value in the data set with c-fos mRNA turned out to be 39 % CONTROL.

Regarding “AGC-TCC-CTC-CTC-CGG-TTG-CG (AGCTCCCTCCTCCGGTTGCG; antisense; all phosphorothioate, sugars by position and methylation of C not given here) [ISIS 10633]”, in the data set with c-fos mRNA, the “c-fos mRNA % CONTROL” value is recorded as 24 % CONTROL and the “inhibition of c-fos mRNA expression” value was 76%.

On to “CCC-TCC-CAG-GCT-CAA-GTC-AT (CCCTCCCAGGCTCAAGTCAT; antisense; DNA, all phosphorothioate, methylation of C not given here) [ISIS 10646]”, for which the “c-fos mRNA % CONTROL” value in the data set with c-fos mRNA came out at 100 % CONTROL.

With “GCT-GCG-CCG-CCG-ACG-TGA-CG (dG*dC*dT*dG*dC*dG*dC*dC*dG*dC*dC*dG*dA*dC*dG*dT*dG*dA*dC*dG; antisense) [ISIS 10578]”, the “c-jun mRNA % CONTROL” value in the data set on c-jun mRNA worked out at 37 % CONTROL.

Take “CGC-GCC-CGG-CCT-GAA-AAT-TT (CGCGCCCGGCCTGAAAATTT; antisense; DNA, all phosphorothioate, methylation of C not given here) [ISIS 10642]”: the “c-fos mRNA % CONTROL” value in the data set on c-fos mRNA was determined as 87 % CONTROL.

For the substance “TGC-CCC-TCA-GCC-CCC-GAC-GG (dT*dG*dC*dC*dC*dC*dT*dC*dA*dG*dC*dC*dC*dC*dC*dG*dA*dC*dG*dG; antisense) [ISIS 10583]”, in the data set on c-jun mRNA, the “c-jun mRNA % CONTROL” value was 20 % CONTROL and the “inhibition of c-jun mRNA expression” value stood at 80%.

In the case of “TGG-TGC-CTG-CGT-GAT-ACT-CG (TGGTGCCTGCGTGATACTCG; antisense; DNA, all phosphorothioate, methylation of C not given here) [ISIS 10645]”, in the data set on c-fos mRNA, the “c-fos mRNA % CONTROL” value is on record as 56 % CONTROL.

On to “CGC-CCC-GCC-GCC-GCT-GCT-CA (dC*dG*dC*dC*dC*dC*dG*dC*dC*dG*dC*dC*dG*dC*dT*dG*dC*dT*dC*dA; antisense) [ISIS 10579]”, for which the “c-jun mRNA % CONTROL” value in the data set on c-jun mRNA amounted to 41 % CONTROL.

On to “GCC-ACA-CTC-AGT-GCA-ACT-CT (dG*dC*dC*dA*dC*dA*dC*dT*dC*dA*dG*dT*dG*dC*dA*dA*dC*dT*dC*dT; antisense) [ISIS 10570]”, for which the “c-jun mRNA % CONTROL” value in the data set on c-jun mRNA came out at 62 % CONTROL.

On to “TGG-CAC-GGA-GCG-GGC-TGT-CT (TGGCACGGAGCGGGCTGTCT; antisense; all phosphorothioate, sugars by position and methylation of C not given here) [ISIS 10635]”, for which, in the data set with c-fos mRNA, the “c-fos mRNA % CONTROL” value is 12 % CONTROL and the “inhibition of c-fos mRNA expression” value is given as 88%.

For the substance “A^SA^SG^ST^SC^SC^ST^ST^SG^SA^SG^SG^SC^SC^SC^SA^SC^SA^SG^SC (antisense AAGTCCTTGAGGCCCACAGC; all phosphorothioate, sugars by position and methylation of C not given here) [ISIS 11538]”, the “c-fos (expression, modified oligonucleotides)” value in the data set with c-fos mRNA (A549 cells) was found to be 15.

With “CGC-ACC-TCC-ACT-CCC-GCC-TC (dC*dG*dC*dA*dC*dC*dT*dC*dC*dA*dC*dT*dC*dC*dC*dG*dC*dC*dT*dC; antisense) [ISIS 10571]”, the “c-jun mRNA % CONTROL” value in the data set with c-jun mRNA stood at 100 % CONTROL.

Turning to “GTG-TCT-CGC-CGG-GCA-TCT-CG (dG*dT*dG*dT*dC*dT*dC*dG*dC*dC*dG*dG*dG*dC*dA*dT*dC*dT*dC*dG; antisense) [ISIS 10580]”, in the data set with c-jun mRNA, the “c-jun mRNA % CONTROL” value was determined as 19 % CONTROL and the “inhibition of c-jun mRNA expression” value came out at 81%.

Turning to “CCC-CCG-ACC-GTC-TCT-CTT-CA (dC*dC*dC*dC*dC*dG*dA*dC*dC*dG*dT*dC*dT*dC*dT*dC*dT*dT*dC*dA; antisense) [ISIS 10581]”, in the data set with c-jun mRNA, the “c-jun mRNA % CONTROL” value was 24 % CONTROL and the “inhibition of c-jun mRNA expression” value was determined as 76%.

In the case of “GGT-GCC-GGC-TGC-CTC-CCC-TT (GGTGCCGGCTGCCTCCCCTT; antisense; all phosphorothioate, sugars by position and methylation of C not given here) [ISIS 10638]”, in the data set with c-fos mRNA, the “c-fos mRNA % CONTROL” value was found to be 22 % CONTROL and the “inhibition of c-fos mRNA expression” value turned out to be 78%.

With “CCC-CCA-CTT-CCG-CCC-ACT-AT (CCCCCACTTCCGCCCACTAT; antisense; DNA, all phosphorothioate, methylation of C not given here) [ISIS 10644]”, the “c-fos mRNA % CONTROL” value in the data set with c-fos mRNA is 104 % CONTROL.

As to “ACC-GTG-GGA-ATG-AAG-TTG-GC (ACCGTGGGAATGAAGTTGGC; antisense; all phosphorothioate, sugars by position and methylation of C not given here) [ISIS 10632]”, in the data set on c-fos mRNA, the “c-fos mRNA % CONTROL” value is reported as 63 % CONTROL.

In the case of “TTG-CAG-GCA-GGT-CGG-TGA-GC (TTGCAGGCAGGTCGGTGAGC; antisense; all phosphorothioate, sugars by position and methylation of C not given here) [ISIS 10634]”, the “c-fos mRNA % CONTROL” value in the data set with c-fos mRNA was 42 % CONTROL.

As for “TCC-CGT-CCC-CAG-AAG-CAG-TA (TCCCGTCCCCAGAAGCAGTA; antisense; DNA, all phosphorothioate, methylation of C not given here) [ISIS 10641]”, in the data set with c-fos mRNA, the “c-fos mRNA % CONTROL” value was found to be 68 % CONTROL.

Regarding “GAG-AAC-ATC-ATC-GTG-GCG-GT (GAGAACATCATCGTGGCGGT; antisense; all phosphorothioate, sugars by position and methylation of C not given here) [ISIS 10631]”, the “c-fos mRNA % CONTROL” value with c-fos mRNA is 118 % CONTROL.

In the case of “CGG-TCA-CTG-CTC-GTT-CGC-TG (CGGTCACTGCTCGTTCGCTG; antisense; all phosphorothioate, sugars by position and methylation of C not given here) [ISIS 10629]”, the “c-fos mRNA % CONTROL” value in the data set on c-fos mRNA is reported as 72 % CONTROL.

For the substance “TGC-TCG-CTG-CAC-ATG-CGG-TT (TGCTCGCTGCACATGCGGTT; antisense; all phosphorothioate, sugars by position and methylation of C not given here) [ISIS 10628]”, the “c-fos mRNA % CONTROL” value with c-fos mRNA is given as 79 % CONTROL.

With “A^SA^SG^ST^SC^SC^ST^ST^SG^SA^SG^SG^SC^SC^SChu SA^SC^SA^SG^SC (AAGTCCTTGAGGCCCACAGC; all phosphorothioate, sugars by position and methylation of C not given here; further chemistry not fully specified) [ISIS 11200]”, in the data set on c-fos mRNA (A549 cells), the “effect on c-fos mRNA levels during TPA induction (in words)” value is “some enhancement of c-fos modulation” and the “c-fos (expression, modified oligonucleotides)” value was found to be 5.

For the substance “CCT-CAC-AGG-GCC-AGC-AGC-GT (CCTCACAGGGCCAGCAGCGT; antisense; all phosphorothioate, sugars by position and methylation of C not given here) [ISIS 10637]”, the “c-fos mRNA % CONTROL” value with c-fos mRNA was found to be 35 % CONTROL.
